# Columns and labels:
# [1] = test system: ORYSP (Transplanted Paddy Rice); assay: Effect on weeds in rice by water application (Example 3); format: in vivo; settings: mixtures of Table 4
# Excerpt: Seeds of the various weed species and rice were planted in a sandy-loamy soil in a greenhouse under good growth conditions. Three weeks after sowing the tank mixture containing the formulated test compound was applied to the plants submerged in the paddy water. The plants were visually assessed three weeks after application, and the percentage control of the plants is-shown in Table 4 in comparison with untreated controls.
# ZEAMA (Maize) = assay: Weed control postemergence in maize under field conditions, outdoor pot trial (Example 4); format: in vivo; settings: Tables 5 and 6
# Excerpt: Seeds of various crop and weed species were planted in a sandy-loamy soil and placed in a climate chamber in a greenhouse under good growth conditions. Four weeks after sowing, the plants were sprayed with a tank mixture containing the formulated test compound at a spray rate of 300 l/ha of spray solution. The plants were visually assessed fourteen days after application, and the percentage control of the plants is shown in Tables 1 and 2.
# Using the method of Example 1 but in an outdoor pot trial in the field there were obtained the following results shown in Tables 5, 6 and 7. […]
smiles,measurement,setting,value
"CCS(=O)(=O)c1ccc(C(=O)C2C(=O)CCCC2=O)c(Cl)c1C1=NOC(CC#N)C1 (centres unmarked) [B2, 2-[2-chloro-3-(5-cyanomethylisoxazolin-3-yl)-4-ethylsulfonylbenzoyl]cyclohexane-1,3-dione]",rice damage,[1],No rice damage was observed
same,maize damage,ZEAMA (Maize),No maize damage was observed

# — patent publication US20030104946A1, “Herbicidal mixture comprising a benzoyl derivative, a fertilizer containing nitrogen and an adjuvant” (priority 2001, published 2003)
